Where a name gives a salt, the structure may show the parent alone.
What follows are compounds tested against T1, recombinant glucosyltransferase domain of C. difficile Toxin B/TcdB (Clostridioides difficile, UniProt P18177) (assay: biochemical). Details: not given.
T1 construct: 6-His (C); purchased R&D Systems 6246-GT
T1 sequence (P18177 1-543): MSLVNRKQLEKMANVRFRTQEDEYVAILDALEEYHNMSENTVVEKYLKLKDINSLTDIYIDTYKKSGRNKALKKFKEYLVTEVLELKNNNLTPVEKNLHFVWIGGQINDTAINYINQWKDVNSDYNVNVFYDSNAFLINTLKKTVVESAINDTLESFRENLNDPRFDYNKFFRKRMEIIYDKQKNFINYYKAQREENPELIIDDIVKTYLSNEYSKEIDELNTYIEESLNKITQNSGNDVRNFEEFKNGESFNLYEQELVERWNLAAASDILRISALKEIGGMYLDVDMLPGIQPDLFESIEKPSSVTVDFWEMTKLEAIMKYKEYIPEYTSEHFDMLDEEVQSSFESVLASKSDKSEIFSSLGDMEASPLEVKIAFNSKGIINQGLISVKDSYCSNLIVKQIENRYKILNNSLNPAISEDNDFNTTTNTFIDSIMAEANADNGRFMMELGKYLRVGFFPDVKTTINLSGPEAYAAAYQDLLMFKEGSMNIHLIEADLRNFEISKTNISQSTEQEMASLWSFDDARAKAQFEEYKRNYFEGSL

| Compound | IC50 [µM] |
| --- | --- |
| O=C(Nc1ccc(CN2C(=O)c3ccc(Cl)cc3NC(=O)[C@H]2Cc2ccccn2)cc1)c1cccnc1O [Example 27a, (R)—N-(4-((8-Chloro-2,5-dioxo-3-(pyridin-2-ylmethyl)-2,3-dihydro-1H-benzo[e][1,4]diazepin-4(5H)-yl)methyl)phenyl)-2-hydroxynicotinamide] | 1 to 10 |
| COc1cnc(NC(=O)c2ccc(CN3C(=O)c4ccc(Cl)cc4NC(=O)[C@H]3Cc3cnccn3)cc2)nc1 [Example 5y, 4-((8-chloro-2,5-dioxo-3-(pyrazin-2-ylmethyl)-2,3-dihydro-1H-benzo[e][1,4]diazepin-4(5H)-yl)methyl)-N-(5-methoxypyrimidin-2-yl)benzamide] | < 0.1 |
| O=C(O)c1ccc(CN2C(=O)c3ccc(Cl)cc3NC(=O)[C@H]2Cc2ccccc2)cc1 [Example 3a, (R)-4-((3-Benzyl-8-chloro-2,5-dioxo-2,3-dihydro-1H-benzo[e][1,4]diazepin-4(5H)-yl)methyl)benzoic Acid] | 1 to 10 |
| O=C(Nc1ccc(CN2C(=O)c3ccc(Cl)cc3NC(=O)[C@H]2Cc2ccccn2)cc1)c1ccc(Cl)cn1 [Example 26i] | < 0.1 |
| O=C(Nc1ccc(C(F)(F)F)cn1)c1ccc(CN2C(=O)c3ccc(Cl)cc3NC(=O)[C@H]2Cc2ccccn2)cc1 [Example 5q, (R)-4-((8-chloro-2,5-dioxo-3-(pyridin-2-ylmethyl)-2,3-dihydro-1H-benzo[e][1,4]diazepin-4(5H)-yl)methyl)-N-(5-(trifluoromethyl)pyridin-2-yl)benzamide] | < 0.1 |
| Cc1ccc2c(c1)NC(=O)[C@@H](Cc1ccc(Cl)c(Cl)c1)N(Cc1ccc(C(=O)Nc3ccccn3)cc1)C2=O [Example 4ac, (R)-4-((3-(3,4-dichlorobenzyl)-8-methyl-2,5-dioxo-2,3-dihydro-1H-benzo[e][1,4]diazepin-4(5H)-yl)methyl)-N-(pyridin-2-yl)benzamide] | 0.1 to 0.999 |
| N#Cc1ccc2c(c1)NC(=O)[C@@H](Cc1cccnc1)N(Cc1ccc(C(=O)Nc3ccccn3)cc1)C2=O [Example 14a, (R)-4-((8-Cyano-2,5-dioxo-3-(pyridin-3-ylmethyl)-2,3-dihydro-1H-benzo[e][1,4]diazepin-4(5H)-yl)methyl)-N-(pyridin-2-yl)benzamide Hydrochloride] | < 0.1 |
| Cc1ccc(NC(=O)c2ccc(CN3C(=O)c4ccc(Cl)cc4NC(=O)[C@H]3CCN3CCOCC3)cc2)nc1 [Example 10a, (R)-4-((8-Chloro-3-(2-morpholinoethyl)-2,5-dioxo-2,3-dihydro-1H-benzo[e][1,4]diazepin-4(5H)-yl)methyl)-N-(5-methylpyridin-2-yl)benzamide] | 1 to 10 |
| CC(C)(C)OC(=O)N1CCN(c2ccc(NC(=O)c3ccc(CN4C(=O)c5ccc(Cl)cc5NC(=O)[C@H]4Cc4ccccn4)cc3)nc2)CC1 [Example 4aw, (R)-tert-butyl 4-(6-(4-((8-chloro-2,5-dioxo-3-(pyridin-2-ylmethyl)-2,3-dihydro-1H-benzo[e][1,4]diazepin-4(5H)-yl)methyl)benzamido)pyridin-3-yl)piperazine-1-carboxylate] | 0.1 to 0.999 |
| Cc1ccccc1C[C@@H]1C(=O)Nc2cc(Cl)ccc2C(=O)N1Cc1ccc(C(=O)Nc2ccccn2)cc1 [Example 4ai, (R)-4-((8-chloro-3-(2-methylbenzyl)-2,5-dioxo-2,3-dihydro-1H-benzo[e][1,4]diazepin-4(5H)-yl)methyl)-N-(pyridin-2-yl)benzamide] | < 0.1 |
| CC(=O)NC(=O)c1ccc(CN2C(=O)c3ccc(Cl)cc3NC(=O)[C@H]2Cc2ccccn2)cc1 [Example 12a, (R)—N-Acetyl-4-((8-chloro-2,5-dioxo-3-(pyridin-2-ylmethyl)-2,3-dihydro-1H-benzo[e][1,4]diazepin-4(5H)-yl)methyl)benzamide] | < 0.1 |

Same assay, conditions: read-out: TcdB UDP-Glucose hydrolysis activity (IC50, coded); UDP-Glucose hydrolysis assay, fluorescence polarization

| Compound | IC50 [µM] |
| --- | --- |
| COc1ccc(NC(=O)C2CCC(CN3C(=O)c4ccc(Cl)cc4NC(=O)[C@H]3Cc3ccccn3)CC2)nc1 (stereo partly drawn) [Example 4bz, (1R,4r)-4-(((R)-8-chloro-2,5-dioxo-3-(pyridin-2-ylmethyl)-2,3-dihydro-1H-benzo[e][1,4]diazepin-4(5H)-yl)methyl)-N-(5-methoxypyridin-2-yl)cyclohexanecarboxamide] | < 0.1 |
